Experiments:
Test in all cases: Test C pre-/postemergence herbicide test
large crabgrass = format: in vivo, Digitaria sanguinalis; settings: preemergence; for Plant response rating (0 = no effect, 100 = complete control), Crabgrass, Large: 125 g ai/ha
Summary of the method: (§1)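 Visual injury scores run from 0 (no effect) to 100 (complete control), assessed relative to untreated controls 12 to 14 days after treatment in the greenhouse. Chemicals were formulated in a non-phytotoxic solvent mixture with surfactant and applied to soil after planting or to emerged plants at the 1- to 4-leaf stage.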

soybean = format: in vivo, Glycine max; settings: preemergence; for Plant response rating (0 = no effect, 100 = complete control), Soybean: 125 g ai/ha
Summary of the method: as §1

pigweed = format: in vivo, Amaranthus retroflexus; settings: preemergence; for Plant response rating (0 = no effect, 100 = complete control), Pigweed: 125 g ai/ha
Summary of the method: as §1

bermudagrass = format: in vivo, Cynodon dactylon; settings: preemergence; for Plant response rating (0 = no effect, 100 = complete control), Bermudagrass: 125 g ai/ha
Summary of the method: as §1

giant foxtail = format: in vivo, Setaria faberi; settings: preemergence; for Plant response rating (0 = no effect, 100 = complete control), Foxtail, Giant: 125 g ai/ha
Summary of the method: as §1

kochia = format: in vivo, Kochia scoparia; settings: preemergence; for Plant response rating (0 = no effect, 100 = complete control), Kochia: 125 g ai/ha
Summary of the method: as §1

common ragweed = format: in vivo, Ambrosia elatior; set-up: key to Plant response rating, Ragweed: 0 = no effect, 100 = complete control; settings: preemergence; for Plant response rating (0 = no effect, 100 = complete control), Ragweed: 125 g ai/ha
Summary of the method: as §1

morningglory = format: in vivo, Ipomoea coccinea; set-up: key to Plant response rating, Morningglory: 0 = no effect, 100 = complete control; settings: preemergence; for Plant response rating (0 = no effect, 100 = complete control), Morningglory: 125 g ai/ha
Summary of the method: as §1

yellow nutsedge = format: in vivo, Cyperus esculentus; settings: preemergence; for Plant response rating (0 = no effect, 100 = complete control), Nutsedge, Yellow: 125 g ai/ha
Summary of the method: as §1

[1] = 500 g ai/ha, scale 0 to 100 (0 no effect, 100 complete control), visual, 12 to 14 days
[2] = 62 g ai/ha, scale 0 to 100, 0 no effect, 100 complete control

Structure (SMILES)	Plant response rating, Crabgrass, Large (large crabgrass; 62 g ai/ha, scale 0 to 100)	Plant response rating (0 = no effect, 100 = complete control), Crabgrass, Large (large crabgrass)	Plant response rating, Crabgrass, Large (large crabgrass; 250 g ai/ha, scale 0-100)	Plant response rating, Crabgrass, Large (large crabgrass; [1])	Plant response rating, Soybean (soybean; 62 g ai/ha, scale 0 to 100)	Plant response rating (0 = no effect, 100 = complete control), Soybean (soybean)	Plant response rating, Soybean (soybean; [1])	Plant response rating, Pigweed (pigweed; 62 g ai/ha, scale 0 to 100)	Plant response rating, Pigweed (pigweed; [1])	Plant response rating, Bermudagrass (bermudagrass; [2])	Plant response rating (0 = no effect, 100 = complete control), Bermudagrass (bermudagrass)	Plant response rating, Bermudagrass (bermudagrass; 250 g ai/ha, scale 0-100)	Plant response rating, Bermudagrass (bermudagrass; [1])	Plant response rating, Foxtail, Giant (giant foxtail; 62 g ai/ha, scale 0 to 100)	Plant response rating (0 = no effect, 100 = complete control), Foxtail, Giant (giant foxtail)	Plant response rating, Foxtail, Giant (giant foxtail; 250 g ai/ha, scale 0-100)	Plant response rating, Foxtail, Giant (giant foxtail; [1])	Plant response rating (0 = no effect, 100 = complete control), Kochia (kochia)	Plant response rating, Kochia (kochia; 250 g ai/ha, scale 0-100)	Plant response rating, Kochia (kochia; [1])	also measured
C=CCNC(=O)c1cccc(NC(=O)c2nn(C(C)C)nc2CC)c1 [Compound 382]	95	100	100	100	100	100	100	95	100	60	80	85	90	60	90	100	100	20	95	100	Plant response rating, Soybean (soybean; 250 g ai/ha, scale 0-100): 100; Plant response rating (0 = no effect, 100 = complete control), Pigweed (pigweed): 95; Plant response rating, Pigweed (pigweed; 250 g ai/ha, scale 0-100): 100; Plant response rating, Kochia (kochia; 62 g ai/ha, scale 0 to 100): 0; Plant response rating, Ragweed (common ragweed; 62 g ai/ha, scale 0 to 100): 20; Plant response rating (0 = no effect, 100 = complete control), Ragweed (common ragweed): 65; Plant response rating, Ragweed (common ragweed; 250 g ai/ha, scale 0-100): 90; Plant response rating, Ragweed (common ragweed; [1]): 100; Plant response rating, Morningglory (morningglory; 62 g ai/ha, scale 0 to 100): 0; Plant response rating (0 = no effect, 100 = complete control), Morningglory (morningglory): 25; Plant response rating, Morningglory (morningglory; 250 g ai/ha, scale 0-100): 65; Plant response rating, Morningglory (morningglory; [1]): 100; Plant response rating, Nutsedge, Yellow (yellow nutsedge; 62 g ai/ha, scale 0 to 100): 0; Plant response rating (0 = no effect, 100 = complete control), Nutsedge, Yellow (yellow nutsedge): 0; Plant response rating, Nutsedge, Yellow (yellow nutsedge; 250 g ai/ha, scale 0-100): 25; Plant response rating, Nutsedge, Yellow (yellow nutsedge; [1]): 60
CCc1nn(C(C)C)nc1C(=O)Nc1cccc(C(=O)N2CCCCC2)c1 [Compound 385]	90	95	100	100	25	100	100	80	100	55	85	100	100	40	80	95	100	70	85	100	Plant response rating, Soybean (soybean; 250 g ai/ha, scale 0-100): 100; Plant response rating (0 = no effect, 100 = complete control), Pigweed (pigweed): 100; Plant response rating, Pigweed (pigweed; 250 g ai/ha, scale 0-100): 100; Plant response rating, Kochia (kochia; 62 g ai/ha, scale 0 to 100): 0; Plant response rating, Ragweed (common ragweed; 62 g ai/ha, scale 0 to 100): 0; Plant response rating (0 = no effect, 100 = complete control), Ragweed (common ragweed): 20; Plant response rating, Ragweed (common ragweed; 250 g ai/ha, scale 0-100): 90; Plant response rating, Ragweed (common ragweed; [1]): 95; Plant response rating, Morningglory (morningglory; 62 g ai/ha, scale 0 to 100): 15; Plant response rating, Morningglory (morningglory; 250 g ai/ha, scale 0-100): 65; Plant response rating, Morningglory (morningglory; [1]): 100; Plant response rating, Nutsedge, Yellow (yellow nutsedge; 62 g ai/ha, scale 0 to 100): 100; Plant response rating (0 = no effect, 100 = complete control), Nutsedge, Yellow (yellow nutsedge): 100; Plant response rating, Nutsedge, Yellow (yellow nutsedge; 250 g ai/ha, scale 0-100): 100; Plant response rating, Nutsedge, Yellow (yellow nutsedge; [1]): 100
CCc1nn(C(C)C)nc1C(=O)Nc1cccc(C(=O)N(C)CC)c1 [Compound 386]	98	100	100	100	90	90	95	100	100	90	95	95	95	80	90	90	100	100	100	100	Plant response rating, Soybean (soybean; 250 g ai/ha, scale 0-100): 95; Plant response rating (0 = no effect, 100 = complete control), Pigweed (pigweed): 100; Plant response rating, Pigweed (pigweed; 250 g ai/ha, scale 0-100): 100; Plant response rating, Kochia (kochia; 62 g ai/ha, scale 0 to 100): 30; Plant response rating, Ragweed (common ragweed; 62 g ai/ha, scale 0 to 100): 5; Plant response rating (0 = no effect, 100 = complete control), Ragweed (common ragweed): 98; Plant response rating, Ragweed (common ragweed; 250 g ai/ha, scale 0-100): 100; Plant response rating, Ragweed (common ragweed; [1]): 100; Plant response rating, Morningglory (morningglory; 62 g ai/ha, scale 0 to 100): 55; Plant response rating (0 = no effect, 100 = complete control), Morningglory (morningglory): 95; Plant response rating, Morningglory (morningglory; 250 g ai/ha, scale 0-100): 100; Plant response rating, Morningglory (morningglory; [1]): 100; Plant response rating, Nutsedge, Yellow (yellow nutsedge; 62 g ai/ha, scale 0 to 100): 0; Plant response rating (0 = no effect, 100 = complete control), Nutsedge, Yellow (yellow nutsedge): 10; Plant response rating, Nutsedge, Yellow (yellow nutsedge; 250 g ai/ha, scale 0-100): 40; Plant response rating, Nutsedge, Yellow (yellow nutsedge; [1]): 60
CCc1nn(C(C)C)nc1C(=O)Nc1cccc(C(=S)N(C)C)c1 [Compound 409]	85	95	95	95	0	80	100	100	100	40	50	85	85	30	85	95	95	70	85	95	Plant response rating, Ragweed (common ragweed; 62 g ai/ha, scale 0 to 100): 45; Plant response rating (0 = no effect, 100 = complete control), Ragweed (common ragweed): 85; Plant response rating, Ragweed (common ragweed; [1]): 95; Plant response rating, Morningglory (morningglory; 62 g ai/ha, scale 0 to 100): 10; Plant response rating (0 = no effect, 100 = complete control), Morningglory (morningglory): 40; Plant response rating, Morningglory (morningglory; [1]): 100; Plant response rating, Nutsedge, Yellow (yellow nutsedge; 62 g ai/ha, scale 0 to 100): 0; Plant response rating (0 = no effect, 100 = complete control), Nutsedge, Yellow (yellow nutsedge): 0; Plant response rating, Nutsedge, Yellow (yellow nutsedge; [1]): 55
